The target of one assay is T1, Adrenergic α2A (Homo sapiens, UniProt P08913).
T1 construct: expressed in transfected cells; host or cells: CHO-K1 (membrane extracts)
Put plainly: GTPγ[35S] assay, Adrenergic α2A. In kind it is biochemical. To be noted: antagonism, CHO-K1 membranes, read-out: Activity (Antagonism: IC50), Adrenergic a2A. How it is done: (§1) Receptor […] activity assays were performed using 8′OH-2-CF3-dihydroergotamine (8′OH-2-CF3-DHE). Table 1 summarizes the cell lines (CHO-K1/HEK293 transfected with relevant human receptor) and the assays performed to detect any agonist or antagonist activity.
(§2) GTPγS studies were conducted to monitor agonist activity for 8′OH-2CF3-dihydroergotamine (8′OH-2CF3-DHE) against the receptors indicated in Table 1 above. Reagents used were the following: Assay buffer (20 mM HEPES, pH 7.4; 100 mM NaCl; 10 μg/mL saponin; 30 mM MgCl2); Membranes (recombinant human receptor membrane extracts were thawed on ice and diluted in assay buffer to give 1000 μg/mL ([…]) and kept on ice); GDP (diluted in assay buffer to give 30 μM solution (3 μM final concentration); beads (PVT-WGA (Amersham, RPNQ001), diluted in assay buffer at 25 mg/mL (0.25 mg/10 μL)); GTPγ^35S (Perkin Elmer, NEG030X), diluted in assay buffer to give 0.1 nM (final concentration); and ligand (agonist/antagonist diluted in assay buffer).
(§3) Membranes were mixed with GDP (1:1) and incubated for at least 15 minutes on ice. In parallel GTPγ^35S was mixed with the beads (1:1) just before starting the reaction. […] The plates were then centrifuged for 10 minutes at 2000 rpm and incubated at room temperature for 1 hour and counted for 1 min/well with a Perkin Elmer TopCount reader.

The target of another assay is T2, Dopamine D4 (Homo sapiens, UniProt P21917).
T2 construct: expressed in transfected cells; host or cells: CHO-K1 (membrane extracts)
T2 sequence (P21917 whole entry): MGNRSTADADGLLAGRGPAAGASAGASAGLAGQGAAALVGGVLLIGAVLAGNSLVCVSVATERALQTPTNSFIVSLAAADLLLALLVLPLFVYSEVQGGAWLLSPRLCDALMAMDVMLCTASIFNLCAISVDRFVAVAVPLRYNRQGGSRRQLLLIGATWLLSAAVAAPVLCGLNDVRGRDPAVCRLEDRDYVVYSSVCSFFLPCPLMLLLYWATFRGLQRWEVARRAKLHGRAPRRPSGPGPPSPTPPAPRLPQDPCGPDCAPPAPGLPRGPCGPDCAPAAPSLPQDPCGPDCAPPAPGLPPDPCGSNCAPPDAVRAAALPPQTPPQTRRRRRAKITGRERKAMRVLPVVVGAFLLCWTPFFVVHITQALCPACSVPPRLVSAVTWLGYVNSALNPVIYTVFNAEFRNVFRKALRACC
Nature of the assay: GTPγ[35S] assay, Dopamine D4. Particulars: antagonism, CHO-K1 membranes. The class given is biochemical. How it is done:
as §1, §2, §3

In the next assay the target is T3, Serotonin 5-HT2A (Homo sapiens, UniProt P28223).
T3 construct: expressed in transfected cells; host or cells: CHO-K1 mAeq Gα16
T3 sequence (P28223 whole entry): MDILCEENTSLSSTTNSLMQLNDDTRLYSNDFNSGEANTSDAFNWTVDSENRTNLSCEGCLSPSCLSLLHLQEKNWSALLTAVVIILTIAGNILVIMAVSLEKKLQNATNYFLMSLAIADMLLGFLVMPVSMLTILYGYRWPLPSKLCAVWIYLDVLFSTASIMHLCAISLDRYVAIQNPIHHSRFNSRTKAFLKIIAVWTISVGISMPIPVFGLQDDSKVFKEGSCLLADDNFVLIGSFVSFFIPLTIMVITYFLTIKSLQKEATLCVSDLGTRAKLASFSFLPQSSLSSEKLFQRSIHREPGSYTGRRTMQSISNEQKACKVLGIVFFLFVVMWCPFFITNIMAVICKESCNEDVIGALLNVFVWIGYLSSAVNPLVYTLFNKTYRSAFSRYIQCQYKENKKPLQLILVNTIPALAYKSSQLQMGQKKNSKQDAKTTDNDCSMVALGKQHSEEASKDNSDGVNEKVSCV
Nature of the assay: Aequorin assay, Serotonin 5-HT2A. In kind it is cell-based. To be noted: agonism; CHO-K1 mAeq Gα16, Aequorin. How it is done: as §1
(§4) Aequorin assays were conducted to monitor activity for 8′OH-2CF3-dihydroergotamine (8′OH-2CF3-DHE) against the receptors indicated in Table 1 above (except for mGlu3 and mGlu5). CHO-K1 cells coexpressing mitochondrial apoaequorin and the recombinant human receptor of interest were grown to mid-log phase in culture media without antibiotics and then detached with PBS-EDTA, centrifuged and resuspended in assay buffer (DMEM/HAM's F12 with HEPES, without phenol red+0.1% BSA, protease free) at a concentration of 1×10^6 cell/mL. […]
(§5) 50 μL of the cell suspension was mixed with 50 μL of test or reference agonist in a 96-well plate. The resulting emission of light was recorded using Hamamatsu Functional Drug Screening System 6000 (FDSS 6000) luminometer. […]
(§6) To standardize the emission of recorded light (and determine of the “100% signal”) across plates and across different experiments, some wells contained 100 μM digitonin or a saturating concentration of ATP (20 μM).

The next assay has as its target T4, Serotonin 5-HT2B (Homo sapiens, UniProt P41595).
T4 construct: expressed in transfected cells; host or cells: CHO-K1 mAeq Gα16
Nature of the assay: Aequorin assay, Serotonin 5-HT2B. In kind it is cell-based. Particulars: antagonism; CHO-K1 mAeq Gα16, Aequorin. How it is done: as §1, §4, §5, §6

The next assay addresses T5, Serotonin 5-HT3 (Homo sapiens, UniProt P46098).
T5 construct: expressed in transfected cells; host or cells: HEK-293 mAeq
Nature of the assay: Aequorin assay, Serotonin 5-HT3. In kind it is cell-based. To be noted: antagonism, HEK-293 mAeq. As to the method: as §1, §4, §5, §6

The subject of assay [1] is Purinergic (P2X1/P2X2/P2X3/P2X4/P2X7). Put plainly: Purinergic receptor QPatch patch clamp study. In kind it is cell-based, human. Particulars: HEK293, QPatch HT, agonist and antagonist modes at 10 and 30 μM. How it is done:
Purinergic receptor studies were conducted to monitor activity for 8′OH-2CF3-dihydroergotamine (8′OH-2CF3-DHE) against the P2X1, P2X2, P2X3, P2X4 and P2X7 receptors. Human recombinant purinergic receptor expressing HEK293 cells were used and receptor activity was evaluated at room temperature using QPatch HT® (Sophion Bioscience A/S, Denmark) automatic parallel patch clamp system. 8′OH-2CF3-DHE was evaluated in both agonist and antagonist modes at 10 and 30 μM. Each concentration was tested in triplicates.

In the next assay the test system is Calcitonin (AM1/AM2). Nature of the assay: cAMP HTRF assay, Calcitonin AM1/AM2. The class given is cell-based, human. Particulars: CHO-K1, cAMP. How it is done:
as §1
cAMP HTRF (Gs) studies were conducted to monitor activity for 8′OH-2CF3-dihydroergotamine (8′OH-2CF3-DHE) against the receptors indicated in Table 1 above. Cells expressing the human recombinant receptor of interest were grown in media without antibiotic and detached by gentle flushing with PBS-EDTA (5 mM EDTA), recovered by centrifugation and resuspended in assay buffer (KRH: 5 mM KCl, 1.25 mM MgSO4, 124 mM NaCl, 25 mM HEPES, 13.3 mM glucose, 1.25 mM KH2PO4, 1.45 mM CaCl2, 0.5 g/L BSA). Dose response curves were performed in parallel with the reference compounds. For agonist tests (96-well plates), 12 μL of cells was mixed with 12 μL of the test compound at increasing concentrations and then incubated for 30 minutes at room temperature. Lysis buffer was added and after a 1 hour incubation, cAMP concentrations was determined according to the manufacturer specification with the HTRF kit. […] Lysis buffer was added and after a 1 hour incubation, cAMP concentrations were determined according to the manufacturer specification, with the HTRF kit.

In a further assay the target is T6, Calcitonin (CGRP) (Homo sapiens, UniProt O60894+Q16602).
T6 construct: expressed in transfected cells; host or cells: CHO-AEQ (CHO-K1 coexpressing mitochondrial apoaequorin)
T6 sequence (Q16602 23-461): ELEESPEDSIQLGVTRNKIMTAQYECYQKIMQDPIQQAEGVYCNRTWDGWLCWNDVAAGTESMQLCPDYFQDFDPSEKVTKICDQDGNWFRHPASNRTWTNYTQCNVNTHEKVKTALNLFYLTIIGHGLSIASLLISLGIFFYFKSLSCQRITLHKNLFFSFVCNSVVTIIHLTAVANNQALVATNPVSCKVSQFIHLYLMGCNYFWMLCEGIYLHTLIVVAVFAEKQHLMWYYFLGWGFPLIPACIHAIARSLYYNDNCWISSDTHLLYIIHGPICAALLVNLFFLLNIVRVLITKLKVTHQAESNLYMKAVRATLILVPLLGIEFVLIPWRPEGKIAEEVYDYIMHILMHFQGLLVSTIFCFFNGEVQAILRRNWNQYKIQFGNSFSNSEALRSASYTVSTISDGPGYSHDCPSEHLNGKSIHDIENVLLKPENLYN
T6 sequence (O60894 27-148 partner): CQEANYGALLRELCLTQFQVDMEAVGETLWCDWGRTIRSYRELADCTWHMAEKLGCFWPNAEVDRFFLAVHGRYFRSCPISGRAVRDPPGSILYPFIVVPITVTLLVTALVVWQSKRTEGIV
Put plainly: Aequorin assay, CGRP receptor. The class given is cell-based. To be noted: CHO-AEQ. How it is done:
as §1, §4, §5, §6

Another assay addresses T7, NK1 (Homo sapiens, UniProt P25103).
T7 construct: expressed in transfected cells; host or cells: CHO-AEQ (CHO-K1 coexpressing mitochondrial apoaequorin)
Put plainly: Aequorin assay, Neurokinin NK1. The class given is cell-based. Particulars: antagonism, CHO-AEQ. How it is done:
as §1, §4, §5, §6

T1 sequence (P08913 whole entry): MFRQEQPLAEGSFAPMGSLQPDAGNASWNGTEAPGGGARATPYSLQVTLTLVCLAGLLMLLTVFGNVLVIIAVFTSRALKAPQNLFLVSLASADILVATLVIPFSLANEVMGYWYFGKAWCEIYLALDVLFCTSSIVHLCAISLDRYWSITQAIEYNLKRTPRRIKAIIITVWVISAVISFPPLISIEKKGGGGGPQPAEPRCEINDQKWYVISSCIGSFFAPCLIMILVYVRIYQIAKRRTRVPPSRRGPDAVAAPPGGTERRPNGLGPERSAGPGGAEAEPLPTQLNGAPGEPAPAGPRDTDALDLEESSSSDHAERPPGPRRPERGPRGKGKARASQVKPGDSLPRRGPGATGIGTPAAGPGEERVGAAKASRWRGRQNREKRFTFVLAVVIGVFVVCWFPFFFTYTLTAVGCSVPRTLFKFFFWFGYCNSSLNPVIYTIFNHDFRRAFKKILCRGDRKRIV
T5 sequence (P46098 24-478): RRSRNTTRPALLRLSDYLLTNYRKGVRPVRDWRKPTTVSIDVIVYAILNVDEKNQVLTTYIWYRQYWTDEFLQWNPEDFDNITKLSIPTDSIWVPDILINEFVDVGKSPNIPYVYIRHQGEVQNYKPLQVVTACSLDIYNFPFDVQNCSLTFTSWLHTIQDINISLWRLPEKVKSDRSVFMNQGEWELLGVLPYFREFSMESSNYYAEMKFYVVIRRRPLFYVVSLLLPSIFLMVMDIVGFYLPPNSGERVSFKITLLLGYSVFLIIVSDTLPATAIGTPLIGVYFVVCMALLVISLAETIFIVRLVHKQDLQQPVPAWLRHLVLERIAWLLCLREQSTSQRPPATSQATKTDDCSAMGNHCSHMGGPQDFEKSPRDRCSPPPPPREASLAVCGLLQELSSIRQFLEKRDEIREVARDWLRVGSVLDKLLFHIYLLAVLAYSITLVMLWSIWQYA
T7 sequence (P25103 whole entry): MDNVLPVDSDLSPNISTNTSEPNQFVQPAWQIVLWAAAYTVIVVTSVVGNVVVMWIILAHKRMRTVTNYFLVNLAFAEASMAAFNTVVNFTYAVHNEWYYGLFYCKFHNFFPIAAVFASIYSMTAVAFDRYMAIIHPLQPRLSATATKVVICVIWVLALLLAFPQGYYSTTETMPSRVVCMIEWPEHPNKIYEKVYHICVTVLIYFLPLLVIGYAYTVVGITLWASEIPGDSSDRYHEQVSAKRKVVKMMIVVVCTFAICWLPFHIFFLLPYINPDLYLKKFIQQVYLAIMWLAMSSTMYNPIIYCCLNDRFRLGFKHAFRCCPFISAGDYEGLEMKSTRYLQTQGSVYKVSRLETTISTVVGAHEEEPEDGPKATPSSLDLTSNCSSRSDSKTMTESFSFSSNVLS
T4 sequence (P41595 whole entry): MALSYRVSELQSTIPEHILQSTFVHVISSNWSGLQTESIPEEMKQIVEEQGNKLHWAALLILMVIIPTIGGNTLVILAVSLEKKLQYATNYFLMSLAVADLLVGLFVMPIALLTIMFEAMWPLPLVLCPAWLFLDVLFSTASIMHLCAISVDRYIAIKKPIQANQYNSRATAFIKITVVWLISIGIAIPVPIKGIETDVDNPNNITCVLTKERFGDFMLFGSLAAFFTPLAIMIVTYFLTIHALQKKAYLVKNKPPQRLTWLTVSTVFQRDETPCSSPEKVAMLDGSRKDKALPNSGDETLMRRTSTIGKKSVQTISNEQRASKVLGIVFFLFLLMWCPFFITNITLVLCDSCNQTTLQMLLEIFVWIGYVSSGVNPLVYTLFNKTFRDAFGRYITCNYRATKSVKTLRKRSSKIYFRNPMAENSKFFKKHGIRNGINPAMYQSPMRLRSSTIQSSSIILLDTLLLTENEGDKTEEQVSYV

With `CN1C[C@H](C(=O)N[C@]2(C)O[C@@]3(O)[C@@H]4CC[C@@H](O)N4C(=O)[C@H](Cc4ccccc4)N3C2=O)C[C@@H]2c3cccc4[nH]c(C(F)(F)F)c(c34)C[C@H]21` [8′OH-2-CF3-DHE, 8′-Hydroxy-2-CF3-dihydroergotamine], the IC50 on Adrenergic α2A is 0.149 µM; at Dopamine D4, over 10 µM; on Serotonin 5-HT2B it was 0.0882 µM; against Serotonin 5-HT3, 2.76 µM; at NK1, over 1 µM. In addition, the EC50 at Serotonin 5-HT2A worked out at 0.607 µM. The “Activity (Agonism: EC50; Antagonism: IC50), Purinergic (P2X1/P2X2/P2X3/P2X4/P2X7)” value in assay [1] is “Inactive”. Further, in the assay with Calcitonin (AM1/AM2), the “Activity (Agonism: EC50; Antagonism: IC50), Calcitonin (AM1/AM2)” value is “Inactive”. Also, on Calcitonin (CGRP), the “Activity (Agonism: EC50; Antagonism: IC50), Calcitonin (CGRP)” value is “Inactive”.

For orientation: IC50 means the concentration that gives 50% inhibition. In general, EC50 refers to the concentration needed to bring the measured effect to its halfway point.

Values taken from patent publication US20150238487A1, “NOVEL ERGOLINE DERIVATIVES AND USES THEREOF” (MAP Pharmaceuticals, Inc., priority 2012, published 2015).
